Data from patent US20030095958A1, “Inhibitors of bace” (priority 2001, published 2003).

Target: BACE (Homo sapiens, UniProt P56817)
Experiment: Ki Determination for the Inhibition of BACE (FS-1 peptide fluorescence cleavage assay)
Format: biochemical
Details: apparent Ki; 50 nM BACE, 10 μM FS-1 substrate, 0.1M sodium acetate pH 4.5
Description: Compounds were tested against BACE activity using the following modifications of the method described in J. Ermolieff et al. (2000) Biochemistry 39(51):16263.
All compound evaluations were performed in 0.1M sodium acetate (buffer), pH, 4.5, 10 μM substrate (FS-1 peptide as described in the reference above; this is commercially available), varying concentrations of the test compound or control (DMSO to yeild 2% vol/vol), and 50 nM BACE. The assay volume is 100 μL.
Two microliters of the test compound dissolved in DMSO are added to each well in a 96-well microtiter plate. Seventy eight microliters of BACE are mixed with buffer and added to each well then incubated at room temperature for 15 minutes. A stock solution of 50 μM FS-1 substrate was prepared by addition of an aliquot of FS-1 substrate which was dissolved in DMSO to the buffer and mixed well. The reaction is initiated by addition of 20 μL of the FS-1 mix to the remaining, preincubated assay components. The cleavage reaction of substrate to product is measured using a Molecular Devices fluorescence plate reader with the excitation and emission filter pairs of 355 nm and 495 nm, respectively. Apparent Ki values are determined by fitting the data to the integrated equation for competitive tight binding inhibition.

BACE, sequence (P56817 46-501): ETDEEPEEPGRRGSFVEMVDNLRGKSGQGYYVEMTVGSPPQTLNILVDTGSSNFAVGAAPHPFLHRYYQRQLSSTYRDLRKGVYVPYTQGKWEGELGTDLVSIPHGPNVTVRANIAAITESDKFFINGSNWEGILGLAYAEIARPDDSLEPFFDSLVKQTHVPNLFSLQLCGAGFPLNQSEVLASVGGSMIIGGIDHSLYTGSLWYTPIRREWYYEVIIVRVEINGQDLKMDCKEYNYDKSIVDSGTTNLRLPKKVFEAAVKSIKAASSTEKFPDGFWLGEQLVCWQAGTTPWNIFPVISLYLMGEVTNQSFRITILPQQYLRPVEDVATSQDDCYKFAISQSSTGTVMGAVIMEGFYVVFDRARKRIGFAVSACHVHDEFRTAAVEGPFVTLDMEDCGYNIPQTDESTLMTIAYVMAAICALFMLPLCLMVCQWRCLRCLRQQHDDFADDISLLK

| Ki [µM] | SMILES |
| --- | --- |
| 3 to 30 | O=C(Nc1cc(C(F)(F)F)ccc1N1CCNCC1)c1cnc2ccccc2n1 [Compound 189, Quinoxaline-2-carboxylic acid (2-piperazin-1-yl-5-trifluoromethyl-phenyl)-amide] |
| 3 to 30 | O=C(Nc1cc(C(F)(F)F)ccc1N1CCNCC1)c1ccc2cnccc2n1 [Compound 190, [1,6]Naphthyridine-2-carboxylic acid (2-piperazin-1-yl-5-trifluoromethyl-phenyl)-amide] |
| 3 to 30 | O=C(O)C1CN(c2ccc(-c3ccc(C(F)(F)F)cc3)cc2NCc2ccc3ccccc3c2)CCN1 (stereo not drawn) [Compound 191, 4-{3-[(Naphthalen-2-ylmethyl)-amino]-4′-trifluoromethyl-biphenyl-4-yl}-piperazine-2-carboxylic acid] |
| < 3 | COC(=O)C1CN(c2ccc(-c3ccc(C(F)(F)F)cc3)cc2NCc2ccc3ccccc3c2)CCN1 (stereo not drawn) [Compound 192, 4-{3-[(Naphthalen-2-ylmethyl)-amino]-4′-trifluoromethyl-biphenyl-4-yl}-piperazine-2-carboxylic acid methyl ester] |
| < 3 | CC(C)NC(=O)C1CN(c2ccc(-c3ccc(C(F)(F)F)cc3)cc2NCc2ccc3ccccc3c2)CCN1 (stereo not drawn) [Compound 193, 4-{3-[(Naphthalen-2-ylmethyl)-amino]-4′-trifluoromethyl-biphenyl-4-yl}-piperazine-2-carboxylic acid isopropylamide] |
| < 3 | O=C(NCc1ccccc1)C1CN(c2ccc(-c3ccc(C(F)(F)F)cc3)cc2NCc2ccc3ccccc3c2)CCN1 (stereo not drawn) [Compound 194, 4-{3-[(Naphthalen-2-ylmethyl)-amino]-4′-trifluoromethyl-biphenyl-4-yl}-piperazine-2-carboxylic acid benzylamide] |
| < 3 | CN(C)C(=O)C1CN(c2ccc(-c3ccc(C(F)(F)F)cc3)cc2NCc2ccc3ccccc3c2)CCN1 (stereo not drawn) [Compound 195, 4-{3-[(Naphthalen-2-ylmethyl)-amino]-4′-trifluoromethyl-biphenyl-4-yl}-piperazine-2-carboxylic acid dimethylamide] |
| > 30 | Cc1cc(Cl)ccc1OCCCC(=O)N1CCNCC1C(=O)Nc1ccc2ccccc2c1 (stereo not drawn) [Compound 200, 1-[4-(4-Chloro-2-methyl-phenoxy)-butyryl]-piperazine-2-carboxylic acid naphthalen-2-ylamide] |
| > 30 | O=C(Nc1cc(C(F)(F)F)ccc1N1CCCNCC1)c1cccc2ccccc12 [Compound 201, Naphthalene-1-carboxylic acid (2-[1,4]diazepan-1-yl-5-trifluoromethyl-phenyl)-amide] |
| > 30 | O=C(Nc1ccc2ccccc2c1)C1CNCCc2c1[nH]c1ccccc21 (stereo not drawn) [Compound 202, 1,2,3,4,5,6-Hexahydro-azepino[4,5-b]indole-5-carboxylic acid naphthalen-2-ylamide] |
| > 30 | O=C(NCc1ccco1)C1CNCCC1c1ccc(COc2ccccc2C(F)(F)F)cc1 (stereo not drawn) [Compound 203, 4-[4-(2-Trifluoromethyl-phenoxymethyl)-phenyl]-piperidine-3-carboxylic acid (furan-2-ylmethyl)-amide] |
| > 30 | O=C(Nc1ccccc1)C1CNCCC1c1ccc(COc2ccccc2C(F)(F)F)cc1 (stereo not drawn) [Compound 204] |
| > 30 | O=C(C1CNCCC1c1ccc(COc2ccccc2C(F)(F)F)cc1)N1CCc2ccccc2C1 (stereo not drawn) [Compound 205, (3,4-Dihydro-1H-isoquinolin-2-yl)-{4-[4-(2-trifluoromethyl-phenoxymethyl)-phenyl]-piperidin-3-yl}-methanone] |
| > 30 | O=C(Nc1ccc2ccccc2c1)C1CNCCN1C(=O)c1cccc(COc2ccccc2C(F)(F)F)c1 (stereo not drawn) [Compound 206, 1-[3-(2-Trifluoromethyl-phenoxymethyl)-benzoyl]-piperazine-2-carboxylic acid naphthalen-2-ylamide] |
| > 30 | O=C(O)C1CCCCC1C(=O)NCC1CNCCC1c1ccc(COc2ccccc2C(F)(F)F)cc1 (stereo not drawn) [Compound 207, 2-({4-[4-(2-Trifluoromethyl-phenoxymethyl)-phenyl]-piperidin-3-ylmethyl}-carbamoyl)-cyclohexanecarboxylic acid] |
| > 30 | O=C(NCc1ccccc1OC(F)(F)F)C1CNCCC1c1ccc(COc2ccccc2C(F)(F)F)cc1 (stereo not drawn) [Compound 208, 4-[4-(2-Trifluoromethyl-phenoxymethyl)-phenyl]-piperidine-3-carboxylic acid 2-trifluoromethoxy-benzylamide] |
| 3 to 30 | O=C(NC1CCCc2ccccc21)C1CNCCC1c1ccc(COc2ccccc2C(F)(F)F)cc1 (stereo not drawn) [Compound 209, 4-[4-(2-Trifluoromethyl-phenoxymethyl)-phenyl]-piperidine-3-carboxylic acid (1,2,3,4-tetrahydro-naphthalen-1-yl)-amide] |
| 3 to 30 | C1=C(c2cnc(OCc3ccccc3)nc2OCc2ccccc2)CCNC1 [Compound 210, 2,4-Bis-benzyloxy-5-(1,2,3,6-tetrahydro-pyridin-4-yl)-pyrimidine] |
| 3 to 30 | O=C(NC(c1ccccc1)c1ccccc1)C1CNCCC1c1ccc(COc2ccccc2C(F)(F)F)cc1 (stereo not drawn) [Compound 211, 4-[4-(2-Trifluoromethyl-phenoxymethyl)-phenyl]-piperidine-3-carboxylic acid benzhydryl-amide] |

The next lines start with the molecule.

| SMILES | Ki [µM] |
| --- | --- |
| O=C(Nc1ccc(-c2ccc(C(F)(F)F)cc2)cc1N1CCNCC1)c1cccc2ccccc12 [Compound 174, Naphthalene-1-carboxylic acid (3-piperazin-1-yl-4′-trifluoromethyl-biphenyl-4-yl)-amide] | < 3 |
| O=C(Nc1cc(F)c(-c2ccc(Cl)c(Cl)c2)cc1N1CCNCC1)c1cccc2ccccc12 [Compound 175, Naphthalene-1-carboxylic acid (3′,4′-dichloro-2-fluoro-5-piperazin-1-yl-biphenyl-4-yl)-amide] | < 3 |
| O=C(Nc1cc(Br)cc(COc2ccccc2C(F)(F)F)c1N1CCNCC1)c1nccc2ccccc12 [Compound 176, Isoquinoline-1-carboxylic acid [5-bromo-2-piperazin-1-yl-3-(2-trifluoromethyl-phenoxymethyl)-phenyl]-amide] | < 3 |
| O=C(Nc1cc(-c2ccccc2)cc(COc2ccccc2C(F)(F)F)c1N1CCNCC1)c1nccc2ccccc12 [Compound 177, Isoquinoline-1-carboxylic acid [4-piperazin-1-yl-5-(2-trifluoromethyl-phenoxymethyl)-biphenyl-3-yl]-amide] | < 3 |
| O=C(Nc1ccc(COc2ccccc2C(F)(F)F)cc1N1CCNCC1)c1nccc2ccccc12 [Compound 178, Isoquinoline-1-carboxylic acid [2-piperazin-1-yl-4-(2-trifluoromethyl-phenoxymethyl)-phenyl]-amide] | < 3 |
| O=S(=O)(Nc1cc(-c2ccc(Cl)c(Cl)c2)ccc1N1CCNCC1)c1ccc(-c2ccc(C(F)(F)F)cc2)cc1 [Compound 179, 4′-Trifluoromethyl-biphenyl-4-sulfonic acid (3′,4′-dichloro-4-piperazin-1-yl-biphenyl-3-yl)-amide] | 3 to 30 |
| O=S(=O)(Nc1cc(-c2ccc(Cl)c(Cl)c2)ccc1N1CCNCC1)c1ccc(-c2cccc(Cl)c2)cc1 [Compound 180, 3′-Chloro-biphenyl-4-sulfonic acid (3′,4′-dichloro-4-piperazin-1-yl-biphenyl-3-yl)-amide] | 3 to 30 |
| O=S(=O)(Nc1cc(-c2ccc(Cl)c(Cl)c2)ccc1N1CCNCC1)c1ccc(-c2ccc(Cl)cc2)cc1 [Compound 181, 4′-Chloro-biphenyl-4-sulfonic acid (3′,4′-dichloro-4-piperazin-1-yl-biphenyl-3-yl)-amide] | 3 to 30 |
| O=C(Nc1cc(Br)c(COc2ccccc2C(F)(F)F)cc1N1CCNCC1)c1nccc2ccccc12 [Compound 183, Isoquinoline-1-carboxylic acid [5-bromo-2-piperazin-1-yl-4-(2-trifluoromethyl-phenoxymethyl)-phenyl]-amide] | < 3 |
| O=C(Nc1cc(-c2ccccc2)c(COc2ccccc2C(F)(F)F)cc1N1CCNCC1)c1nccc2ccccc12 [Compound 184, Isoquinoline-1-carboxylic acid [4-piperazin-1-yl-6-(2-trifluoromethyl-phenoxymethyl)-biphenyl-3-yl]-amide] | < 3 |
| O=C(Nc1cc(-c2ccc(C(F)(F)F)cc2)c(COc2ccccc2C(F)(F)F)cc1N1CCNCC1)c1nccc2ccccc12 [Compound 185, Isoquinoline-1-carboxylic acid [4-piperazin-1-yl-4′-trifluoromethyl-6-(2-trifluoromethyl-phenoxymethyl)-biphenyl-3-yl]-amide] | 3 to 30 |
| O=C(Nc1cc(-c2ccc(O)cc2)c(COc2ccccc2C(F)(F)F)cc1N1CCNCC1)c1nccc2ccccc12 [Compound 186, Isoquinoline-1-carboxylic acid [4′-hydroxy-4-piperazin-1-yl-6-(2-trifluoromethyl-phenoxymethyl)-biphenyl-3-yl]-amide] | < 3 |
| O=C(Nc1cc(-c2ccoc2)c(COc2ccccc2C(F)(F)F)cc1N1CCNCC1)c1nccc2ccccc12 [Compound 187, Isoquinoline-1-carboxylic acid [5-furan-3-yl-2-piperazin-1-yl-4-(2-trifluoromethyl-phenoxymethyl)-phenyl]-amide] | < 3 |
| CCOC(=O)c1cc(Br)cc(NCc2ccc3ccccc3n2)c1N1CCNCC1 [Compound 188, 5-Bromo-2-piperazin-1-yl-3-[(quinolin-2-ylmethyl)-amino]-benzoic acid ethyl ester] | 3 to 30 |
